Measurements reported in PubChem BioAssay (NCI).
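Following 48 hours of exposure in 96-well plates, responses at five concentrations were used to interpolate endpoints linearly. The concentration for 50% growth inhibition is given as GI50. Definition used: TGI = concentration required for complete inhibition of growth.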

Tests used:
Experiment in all cases: NCI anticancer screen, dose series, 48 h
COLO 205 colon = system: COLO 205 colon
EKVX NSCLC = system: EKVX NSCLC
SN12C renal = system: SN12C renal
SW-620 colon = system: SW-620 colon
U251 CNS = system: U251 CNS
UACC-257 melanoma = system: UACC-257 melanoma
UACC-62 melanoma = system: UACC-62 melanoma
DU-145 prostate = system: DU-145 prostate
MDA-MB-231 breast = system: MDA-MB-231 breast
SK-MEL-2 melanoma = system: SK-MEL-2 melanoma

| Structure (SMILES) | TGI (COLO 205 colon) [µM] | TGI (EKVX NSCLC) [µM] | TGI (SN12C renal) [µM] | TGI (SW-620 colon) [µM] | TGI (U251 CNS) [µM] | TGI (UACC-257 melanoma) [µM] | TGI (UACC-62 melanoma) [µM] | GI50 (COLO 205 colon) [µM] | GI50 (DU-145 prostate) [µM] | TGI (DU-145 prostate) [µM] | GI50 (MDA-MB-231 breast) [µM] | TGI (MDA-MB-231 breast) [µM] | GI50 (SK-MEL-2 melanoma) [µM] | TGI (SK-MEL-2 melanoma) [µM] | GI50 (SN12C renal) [µM] | GI50 (SW-620 colon) [µM] | GI50 (U251 CNS) [µM] | GI50 (UACC-257 melanoma) [µM] | GI50 (UACC-62 melanoma) [µM] | GI50 (EKVX NSCLC) [µM] |
| --- | --- | --- | --- | --- | --- | --- | --- | --- | --- | --- | --- | --- | --- | --- | --- | --- | --- | --- | --- | --- |
| COC(=O)c1cc(=O)nc2cc3cccccc3n12 | > 100 | > 100 | > 100 | > 100 | > 100 | > 100 | > 100 |  |  |  |  |  |  |  |  |  |  |  |  |  |
| O=C1c2ccccc2C(=O)C12CCc1ccccc12 | > 100 | > 100 | > 100 | > 100 | > 100 |  | > 100 |  |  |  |  |  |  |  |  |  |  |  |  |  |
| COc1ccc(-c2nc(-c3nc4cc(Cl)c(F)cc4[nH]3)c3ccccn23)cc1 | > 100 |  | > 100 | > 100 | > 100 | 13.2 | > 100 | 7.1 | 6.58 | > 100 | 5.82 | > 100 | 6.86 | 80 | 11.2 | 5.38 | 6.67 | 3.15 | 6.05 |  |
| CC(=O)/C=C/c1ccc(Nc2c3ccccc3nc3occ(Cl)c23)cc1 | 19.5 | 78.2 | 14.3 |  | 6.83 | 5.59 | 7.03 | 4.46 |  |  | 2.63 | 9.06 | 42.6 | > 100 | 3.29 |  | 2.33 | 1.24 | 1.66 | 27.2 |
| COc1ccc(/C=C2\CCC(CCN(C)C)(C3=CCCC3)C2=O)cc1 (stereo not given) | 25.9 | 39.9 | 40.5 | 31 | 30.4 | 30.8 | 30.3 |  |  |  |  |  |  | 32.9 |  |  |  |  |  |  |
| CC(=O)OC(C(=O)[O][Sn]([CH3])([CH3])[CH3])c1ccccc1 (stereo not given) | > 100 | > 100 | > 100 | > 100 | > 100 | > 100 | > 100 | > 100 |  |  |  |  |  |  | > 100 | > 100 | > 100 | > 100 | > 100 | > 100 |
| N=c1c2ccccc2sc2nc3ccccc3n12 | > 100 | > 100 | > 100 | > 100 | > 100 | > 100 | > 100 |  |  |  |  |  |  | > 100 |  |  |  |  |  |  |
| COc1cc(OC)c2sc(-c3ccc(-n4cncc4-c4ccc(OC)c(OC)c4)cc3)nc2c1 |  |  | > 100 | > 100 | > 100 | > 100 | > 100 |  | 27.9 | > 100 | 28.4 | > 100 | 41.4 | > 100 | > 100 | > 100 | 9.19 | > 100 | 8.14 |  |
| CCOC(=O)c1ccc(NC(=O)NC2=NCCS2)cc1 | > 100 |  | > 100 | > 100 | > 100 | > 100 | > 100 | 40.8 | 1.71 | > 100 | 1.64 | > 100 | 24.6 | 97.9 | 0.954 | 22.9 | 0.899 | > 100 | 7.96 |  |
| CCOC(=O)C1Cc2ccc3c4c(ccc(c24)C1)CC(C(=O)OCC)C3 | > 100 | > 100 | > 100 | > 100 | > 100 | > 100 | > 100 |  |  |  |  |  |  | > 100 |  |  |  |  |  |  |
| CN(C)C(=S)/N=c1\ssc(=S)n1C |  | > 100 | > 100 | > 100 | > 100 | > 100 | > 100 |  |  |  |  |  |  | > 100 |  |  |  |  |  |  |
| CC1=Nc2ccccc2SC(c2c(Cl)cccc2Cl)C1 (stereo not given) | 3.12 | 3.82 | 2.7 | 1.34 | 1.14 | 3.3 | 2.52 |  |  |  |  |  |  |  |  |  |  |  |  |  |
| COc1ccccc1-c1cc(=O)c2cc(C)c(C)c(C(=O)O)c2o1 | > 100 | > 100 | > 100 | > 100 | > 100 | > 100 | > 100 |  |  |  |  |  |  | > 100 |  |  |  |  |  |  |
| C[N+](C)(C)CC1CCCCC1=O (stereo not given) | 49.3 | 57.5 | > 100 | 29.7 | > 100 | 30.9 | 34 |  |  |  |  |  |  |  |  |  |  |  |  |  |
| CN/N=C(/c1nc2ccc([N+](=O)[O-])cc2[nH]c1=O)C(O)c1ccc(C(O)/C(=N\NC)c2nc3ccc([N+](=O)[O-])cc3[nH]c2=O)cc1 (stereo not given) | > 100 | > 100 |  | > 100 | > 100 | > 100 | > 100 |  |  |  |  |  |  | > 100 |  |  |  |  |  |  |
